Results published in PubChem BioAssay AID1963831 (Molecular Pharmacology Branch, DTP, NCI, 2024).
“And” between values parts separate entries of the source, which are not always exact repeats. Equal values may be shown once.

Tested on: 889142-216-R-J1-PDC complex spheroid viability
Assay: Anticancer human tumor 889142-216-R-J1-PDC patient-derived bladder carcinoma cell line growth inhibition [POLQ]
Conditions: for viability, T/C: stronger effect = lower value
Method: Multicellular complex tumor spheroid response to Polymerase (POL) inhibitors (novobiocin, ART-558, RP6685) in combination with a variety of drugs and investigational agents in selected tumor cell lines
The POL inhibitors (novobiocin, ART-558, and RP6685) were evaluated both individually and in combination with standard of care and investigational anticancer small molecules within a complex spheroid model of solid tumors. . Complex spheroids include a stromal component modeled by human endothelial cells (HUVEC) and fibroblasts modeled by human mesenchymal stem cells (MSCs). The concentration ranges selected for each drug and investigational agent were based upon clinically achievable concentrations if the clinical Cmax of the agent was known.
Compounds. The drugs and investigational agents: novobiocin (NSC847541), ART-558 (NSC835418), RP-6685 (NSC848927), peposertib (NSC802822), ceralasertib (NSC780249), elimusertib (NSC800525), camonsertib (NSC841442), AZD-1390 (NSC803789), olaparib (NSC753686), talazoparib (NSC767125), rucaparib (NSC756644), sotorasib (NSC818433), MRTX-1133 (NSC836407), SN-38 (NSC673596), topotecan (NSC609699), epotoside (NSC141540), doxorubicin (NSC123127), gemcitabine (NSC613327), 5-fluorouracil (NSC19893), paclitaxel (NSC125973), vemurafenib (NSC761431), MSA-2 (NSC828583), SN-011 (NSC837082), adavosertib (NSC754352), prexasertib (NSC758257), carboplatin (NSC241240) and oxaliplatin (NSC266046), were obtained from the National Cancer Institute (NCI) Developmental Therapeutics Program Chemical Repository (21). The FDA-approved anticancer drug set is available from the Developmental Therapeutics Program at https://dtp.cancer.gov/organization/dscb/obtaining/. […] The stock solutions were prepared in dimethyl sulfoxide (DMSO, Sigma-Aldrich, St. Louis, MO, cat. D2650), except for the platinum compounds which were prepared in saline (Quality Biological, Gaithersburg, MD, cat. 114-055-101), at 800-fold the tested concentration and stored at -70 degrees C prior to their use. All drugs and investigational agents were tested over a range starting from a high concentration at or near the clinical Cmax and decreasing in half-log increments. If the clinical Cmax for an agent had not been determined, the highest concentration tested was 10 microM, except for SN-38, which was tested at a high concentration of 1 microM.
Cell Culture. All cells were maintained in an incubator at 37 degrees C and 5% CO2 with 95% humidity. The PDC lines were cultured according to standard operating procedures established by the NCI PDMR (https://pdmr.cancer.gov). Table 3 of the manuscript, lists the cell lines along with the number of the three cell types plated to form the mct-spheroids and media for tumor cell growth. After thawing, all PDC lines, except 997537-175-T-J1-PDC and 415267-285-R-J2-PDC, were cultured in Matrigel-coated flasks prepared with a working solution of 1X Ham's F-12 nutrient mix, without supplementation (Thermo Fisher Scientific, cat. 11765054), 100 U/mL penicillin-streptomycin (Thermo Fisher Scientific, cat. 15140122), and 2.5% Matrigel (Corning Inc., Corning, NY, cat. 354248) for the first three passages. The two PDC lines 997537-175-T-J1-PDC and 415267-285-R-J2-PDC were cultured on uncoated flasks. The 857933-349-R-J2-PDC line was cultured in 6C/Colon 1B media containing advanced DMEM/F-12 (Thermo Fisher Scientific, cat. 12634028), 10 mM HEPES (Thermo Fisher Scientific, cat. 15630080), 1X GlutaMAX supplement (Thermo Fisher Scientific, cat. 35050061), 0.1 mg/mL primocin (InvivoGen, San Diego, CA, cat. ant-pm-2), 10% defined fetal bovine serum, heat inactivated (HyClone Laboratories Inc., Logan, UT, cat. SH30070.03HI), 50% L-WRN conditioned media (ATCC, cat. CRL-3276), 1.25 mM N-Acetyl-L-cysteine (Sigma-Aldrich, cat. A9165), 10 mM nicotinamide (Sigma-Aldrich, cat. N0636), 1X B-27 supplement (Thermo Fisher Scientific, cat. 17504044), 1X N-2 supplement (Thermo Fisher Scientific, cat. […]

[1] = curve of first compound, second compound 0.0316 µM
[2] = curve of first compound, second compound 0.1 µM
[3] = curve of first compound, second compound 0.316 µM
[4] = curve of first compound, second compound 1 µM
[5] = curve of first compound, second compound 3.16 µM
[6] = curve of first compound, second compound 10 µM
[7] = second compound 0.0316 µM, first compound 0.0316 µM
[8] = second compound 0.0316 µM, first compound 0.1 µM
[9] = second compound 0.0316 µM, first compound 0.316 µM
[10] = second compound 0.0316 µM, first compound 1 µM
[11] = second compound 0.0316 µM, first compound 3.16 µM
[12] = second compound 0.0316 µM, first compound 10 µM
[13] = second compound 0.1 µM, first compound 0.0316 µM
[14] = second compound 0.1 µM, first compound 0.1 µM
[15] = second compound 0.1 µM, first compound 0.316 µM
[16] = second compound 0.1 µM, first compound 1 µM
[17] = second compound 0.1 µM, first compound 3.16 µM
[18] = second compound 0.1 µM, first compound 10 µM
[19] = second compound 0.316 µM, first compound 0.0316 µM
[20] = second compound 0.316 µM, first compound 0.1 µM
[21] = second compound 0.316 µM, first compound 0.316 µM
[22] = second compound 0.316 µM, first compound 1 µM
[23] = second compound 0.316 µM, first compound 3.16 µM
[24] = second compound 0.316 µM, first compound 10 µM
[25] = second compound 1 µM, first compound 0.0316 µM
[26] = second compound 1 µM, first compound 0.1 µM
[27] = second compound 1 µM, first compound 0.316 µM
[28] = second compound 1 µM, first compound 1 µM
[29] = second compound 1 µM, first compound 3.16 µM
[30] = second compound 1 µM, first compound 10 µM
[31] = second compound 3.16 µM, first compound 0.0316 µM
[32] = second compound 3.16 µM, first compound 0.1 µM
[33] = second compound 3.16 µM, first compound 0.316 µM
[34] = second compound 3.16 µM, first compound 1 µM
[35] = second compound 3.16 µM, first compound 3.16 µM
[36] = second compound 3.16 µM, first compound 10 µM
[37] = second compound 10 µM, first compound 0.0316 µM
[38] = second compound 10 µM, first compound 0.1 µM
[39] = second compound 10 µM, first compound 0.316 µM
[40] = second compound 10 µM, first compound 1 µM
[41] = second compound 10 µM, first compound 3.16 µM
[42] = second compound 10 µM, first compound 10 µM
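Also: spheroids exposed to compounds for seven days.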
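For viability, T/C in this document: 100% = DMSO vehicle control viability.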

## Cn1ncnc1[C@H]1c2n[nH]c(=O)c3cc(F)cc(c23)N[C@@H]1c1ccc(F)cc1
Compound 0.000316 µM
  viability, T/C: 116% and 120% and 92.5%
Compound 0.001 µM
  viability, T/C: 81.2% and 90.7% and 78%
Compound 0.00316 µM
  viability, T/C: 84.9% and 99.1% and 83.2%
Compound 0.01 µM
  viability, T/C: 93.2% and 89.5% and 78.9%
Compound 0.0316 µM
  viability, T/C: 87.3% and 104% and 84.8%
Compound 0.1 µM
  viability, T/C: 76.4% and 64.8% and 72.8%
Curve of compound
  IC50: > 0.1 µM

## CCCS(=O)(=O)Nc1ccc(F)c(C(=O)c2c[nH]c3ncc(-c4ccc(Cl)cc4)cc23)c1F + Nc1ccc(C#CCN(C(=O)Cc2ncc(C(F)(F)F)cc2C(F)(F)F)c2ccc(F)cc2)nn1
[1]
  IC50: 7.49 µM
[2]
  IC50: 7.28 µM
[3]
  IC50: 7.56 µM
[4]
  IC50: > 10 µM
[5]
  IC50: 9.53 µM
[6]
  IC50: > 10 µM
[7]
  viability, T/C: 97.8%
[8]
  viability, T/C: 118%
[9]
  viability, T/C: 122%
[10]
  viability, T/C: 98.3%
[11]
  viability, T/C: 71.5%
[12]
  viability, T/C: 42.8%
[13]
  viability, T/C: 114%
[14]
  viability, T/C: 98.7%
[15]
  viability, T/C: 92.8%
[16]
  viability, T/C: 96.5%
[17]
  viability, T/C: 69.6%
[18]
  viability, T/C: 41.7%
[19]
  viability, T/C: 105%
[20]
  viability, T/C: 101%
[21]
  viability, T/C: 87.4%
[22]
  viability, T/C: 78.6%
[23]
  viability, T/C: 80.3%
[24]
  viability, T/C: 40.6%
[25]
  viability, T/C: 105%
[26]
  viability, T/C: 81.6%
[27]
  viability, T/C: 129%
[28]
  viability, T/C: 76.2%
[29]
  viability, T/C: 63.3%
[30]
  viability, T/C: 49.4%
[31]
  viability, T/C: 93.7%
[32]
  viability, T/C: 92.1%
[33]
  viability, T/C: 116%
[34]
  viability, T/C: 94.2%
[35]
  viability, T/C: 92.5%
[36]
  viability, T/C: 47.9%
[37]
  viability, T/C: 93.2%
[38]
  viability, T/C: 103%
[39]
  viability, T/C: 98.7%
[40]
  viability, T/C: 96.8%
[41]
  viability, T/C: 77.5%
[42]
  viability, T/C: 59.2%

## C#Cc1c(F)ccc2cc(O)cc(-c3ncc4c(N5CC6CCC(C5)N6)nc(OCC56CCCN5CC(F)C6)nc4c3F)c12 (stereo unspecified) + Cc1cccc(N(C)C(=O)C2C(O)CCN2c2nc(C)cc(C(F)(F)F)c2C#N)c1
[1]
  IC50: 6.08 µM
[2]
  IC50: 5.01 µM
[3]
  IC50: 5.26 µM
[4]
  IC50: 7.76 µM
[5]
  IC50: 4.97 µM
[6]
  IC50: 5.01 µM
[7]
  viability, T/C: 106%
[8]
  viability, T/C: 87.8%
[9]
  viability, T/C: 82.6%
[10]
  viability, T/C: 103%
[11]
  viability, T/C: 74.8%
[12]
  viability, T/C: 31.1%
[13]
  viability, T/C: 104%
[14]
  viability, T/C: 100%
[15]
  viability, T/C: 78.3%
[16]
  viability, T/C: 97.8%
[17]
  viability, T/C: 62%
[18]
  viability, T/C: 31.9%
[19]
  viability, T/C: 90.2%
[20]
  viability, T/C: 81.3%
[21]
  viability, T/C: 66.4%
[22]
  viability, T/C: 93.7%
[23]
  viability, T/C: 60.8%
[24]
  viability, T/C: 36.3%
[25]
  viability, T/C: 88.6%
[26]
  viability, T/C: 69.1%
[27]
  viability, T/C: 94%
[28]
  viability, T/C: 71.2%
[29]
  viability, T/C: 108%
[30]
  viability, T/C: 39.7%
[31]
  viability, T/C: 98.2%
[32]
  viability, T/C: 85.2%
[33]
  viability, T/C: 64.8%
[34]
  viability, T/C: 74%
[35]
  viability, T/C: 72.5%
[36]
  viability, T/C: 30.5%
[37]
  viability, T/C: 79.3%
[38]
  viability, T/C: 71.4%
[39]
  viability, T/C: 65.8%
[40]
  viability, T/C: 69.7%
[41]
  viability, T/C: 73%
[42]
  viability, T/C: 17.2%
